The compounds below were run on circulating lymphocytes (assay: Assessment of in vivo efficacy: circulating lymphocytes after oral administration). Details: 6 h after oral administration of 10 mg/kg to normotensive male Wistar rats, compared to vehicle-treated group; mean ± SEM.
Parameters: species or system rat
Procedure: The efficacy of the compounds of formula (I) is assessed by measuring the circulating lymphocytes after oral administration of 3 to 30 mg/kg of a compound of formula (I) to normotensive male Wistar rats. The animals are housed in climate-controlled conditions with a 12 h-light/dark cycle, and have free access to normal rat chow and drinking water. Blood is collected before and 3, 6 and 24 h after drug administration. Full blood is subjected to hematology using Advia Hematology system (Bayer Diagnostics, Zurich, Switzerland).
All data are presented as mean±SEM. Statistical analyses are performed by analysis of variance (ANOVA) using Statistica (StatSoft) and the Student-Newman-Keuls procedure for multiple comparisons. The null hypothesis is rejected when p<0.05.
Lymphocyte counts 6 h after oral administration have been measured for 39 of the 258 exemplified compounds and are in the range of −82% to −48% with an average of −65%.

`CCc1cc(-c2nc(-c3cc(C)nc(N(CC)CC)c3)no2)cc(C)c1OC[C@@H](O)CNC(=O)CO` [Example 80, N—((S)-3-{4-[3-(2-diethylamino-6-methyl-pyridin-4-yl)-[1,2,4]oxadiazol-5-yl]-2-ethyl-6-methyl-phenoxy}-2-hydroxy-propyl)-2-hydroxy-acetamide] and `CCc1cc(-c2nnc(-c3cc(C)nc(N(CC)CC)c3)s2)cc(C)c1OC[C@@H](O)CNC(=O)CO` [Example 94, N—((S)-3-{4-[5-(2-diethylamino-6-methyl-pyridin-4-yl)-[1,3,4]thiadiazol-2-yl]-2-ethyl-6-methyl-phenoxy}-2-hydroxy-propyl)-2-hydroxy-acetamide] are within error of each other in Lymphocyte counts: −68 ± 2% for the first, −75 ± 6% for the second.

First: COc1cc(-c2noc(-c3cc(C)nc(N(C)C(C)C)c3)n2)cc(Cl)c1OC[C@@H](O)CO [Example 149, (S)-3-(2-chloro-4-{5-[2-(isopropyl-methyl-amino)-6-methyl-pyridin-4-yl]-[1,2,4]oxadiazol-3-yl}-6-methoxy-phenoxy)-propane-1,2-diol]
Second: CCc1cc(-c2noc(-c3cc(C)nc(NC(C)C)c3)n2)cc(C)c1OC[C@@H](O)CO [Example 199, (S)-3-{2-ethyl-4-[5-(2-isopropylamino-6-methyl-pyridin-4-yl)-[1,2,4]oxadiazol-3-yl]-6-methyl-phenoxy}-propane-1,2-diol]
The Lymphocyte counts of the first is lower: −82 ± 2% for the first, −72 ± 3% for the second.

Compound `CCc1cc(-c2noc(-c3cc(C)nc(N4CCCC4)c3)n2)cc(C)c1OC[C@@H](O)CNC(=O)CO` [Example 188, N—((S)-3-{2-ethyl-6-methyl-4-[5-(2-methyl-6-pyrrolidin-1-yl-pyridin-4-yl)-[1,2,4]oxadiazol-3-yl]-phenoxy}-2-hydroxy-propyl)-2-hydroxy-acetamide] has a Lymphocyte counts of −76 ± 1%.
